Measurements from publication PMC3724850, “A Scallop Nitric Oxide Synthase (NOS) with Structure Similar to Neuronal NOS and Its Involvement in the Immune Defense” (PLoS ONE, 2013).

Biological target: T1, CfNOS (native) (Azumapecten farreri, UniProt S4UD24)
T1 construct: gene NOS; immunoprecipitated from scallop haemocyte lysate with rat polyclonal antibody to rCfNOS, Protein G column
T1 sequence (S4UD24 1-1486): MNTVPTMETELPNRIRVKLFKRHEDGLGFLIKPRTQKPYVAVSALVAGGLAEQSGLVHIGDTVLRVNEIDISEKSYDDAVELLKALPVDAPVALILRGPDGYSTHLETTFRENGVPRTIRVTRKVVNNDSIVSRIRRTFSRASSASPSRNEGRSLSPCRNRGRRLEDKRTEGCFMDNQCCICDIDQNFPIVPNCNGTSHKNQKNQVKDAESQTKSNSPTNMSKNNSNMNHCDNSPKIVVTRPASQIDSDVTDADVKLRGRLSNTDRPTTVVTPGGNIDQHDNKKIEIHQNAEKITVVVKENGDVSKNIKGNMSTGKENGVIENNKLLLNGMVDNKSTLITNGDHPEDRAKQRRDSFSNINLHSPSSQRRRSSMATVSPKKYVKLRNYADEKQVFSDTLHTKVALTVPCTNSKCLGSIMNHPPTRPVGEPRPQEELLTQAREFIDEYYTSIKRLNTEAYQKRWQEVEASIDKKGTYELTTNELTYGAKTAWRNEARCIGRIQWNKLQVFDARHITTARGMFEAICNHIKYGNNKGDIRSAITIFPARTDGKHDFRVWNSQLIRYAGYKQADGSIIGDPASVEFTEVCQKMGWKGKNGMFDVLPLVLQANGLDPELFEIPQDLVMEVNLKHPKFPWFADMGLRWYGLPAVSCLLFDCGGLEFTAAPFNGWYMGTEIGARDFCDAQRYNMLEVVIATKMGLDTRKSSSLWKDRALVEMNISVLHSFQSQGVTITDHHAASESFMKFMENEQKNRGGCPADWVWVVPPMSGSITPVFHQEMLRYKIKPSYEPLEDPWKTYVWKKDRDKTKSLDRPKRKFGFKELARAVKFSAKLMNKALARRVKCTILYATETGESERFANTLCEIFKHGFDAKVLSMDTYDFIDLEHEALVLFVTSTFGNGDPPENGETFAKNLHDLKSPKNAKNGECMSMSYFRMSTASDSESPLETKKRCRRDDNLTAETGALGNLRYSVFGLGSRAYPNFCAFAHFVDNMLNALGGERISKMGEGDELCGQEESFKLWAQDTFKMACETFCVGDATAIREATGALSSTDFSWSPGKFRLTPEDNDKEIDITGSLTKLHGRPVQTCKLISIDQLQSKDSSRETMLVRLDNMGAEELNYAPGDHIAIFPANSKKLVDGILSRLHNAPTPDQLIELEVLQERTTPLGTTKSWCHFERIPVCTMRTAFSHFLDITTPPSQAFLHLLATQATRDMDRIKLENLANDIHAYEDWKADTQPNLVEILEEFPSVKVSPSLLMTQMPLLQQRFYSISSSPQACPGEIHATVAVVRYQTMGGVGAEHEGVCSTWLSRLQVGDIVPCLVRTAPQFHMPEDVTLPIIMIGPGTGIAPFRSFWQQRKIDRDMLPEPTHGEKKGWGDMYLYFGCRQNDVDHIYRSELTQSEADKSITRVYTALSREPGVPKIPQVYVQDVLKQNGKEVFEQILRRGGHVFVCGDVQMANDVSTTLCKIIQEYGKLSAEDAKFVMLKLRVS
Assay: NOS activity by total NOS detection kit (absorbance […] nm)
Assay type: biochemical
Settings: no inhibitor; immunoprecipitated native enzyme

In the case of N=C(N)NCCC[C@H](N)C(=O)O [L-Arginine], the “NOS activity by total NOS detection kit (absorbance 530 nm)” value is reported as “measuring the NO production using L-Arginine as the substrate”.
